Results taken from US5773569A (Affymax Technologies N.V., priority 1995, dated 1998).
Read-outs that look alike come from different tables or passages of the source. Residues, ends and D or L forms follow the SMILES beside them.

How the values were obtained:
[1] = biological target: T1, extracellular domain of the human erythropoietin receptor (EPO binding protein, EBP) (Homo sapiens, UniProt P19235); experiment: Immobilized EBP based [125I]EPO competition binding assay; conditions: IC50 relative to RWJ61233 (IC50 5 μM); cyclic peptides, COOH terminal amides
T1 construct: made in house
T1 sequence (P19235 25-250 limits assumed): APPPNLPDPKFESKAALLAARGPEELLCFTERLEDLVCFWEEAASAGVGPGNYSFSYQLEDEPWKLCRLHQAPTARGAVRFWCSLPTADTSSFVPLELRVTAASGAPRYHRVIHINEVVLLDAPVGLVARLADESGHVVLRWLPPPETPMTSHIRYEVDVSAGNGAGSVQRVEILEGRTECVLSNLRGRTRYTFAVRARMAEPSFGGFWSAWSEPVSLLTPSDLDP
Description: The iodoacetyl activation chemistry of Sufolink beads (Pierce Chemical Co, Rockford, Ill.) is specific for free thiols and assures that the linkage is not easily reversible. EBP-Sulfolink beads were made as follows: SulfoLink gel suspension (10 ml) was mixed with coupling buffer (40 ml: 50 mM Tris, pH 8.3, 5 mM EDTA) and the gel was allowed to settle. The supernatant was removed and the EBP (0.3-1 mg/ml in coupling buffer) to be bound was added directly to the washed beads. The mixture was rocked gently for 30 minutes at room temperature, and the beads were allowed to settle for 1 hour at room temperature. […] The amount of EBP which was covalently bound to the beads was determined by comparing the OD280 of the original EBP solution to the total OD280 recovered in the reaction supernatant and the two 20 ml washes.
Binding assays were initiated by the addition of EBP beads (50 μl) to individual reaction tubes. […] The tubes were incubated for five hours (a time period experimentally determined as adequate for the establishment of equilibrium) at room temperature with gentle rocking. […]
Competitive binding analysis assays of candidate peptides were performed as outlined below. […] The columns containing the washed beads were placed in 12×75 mm glass tubes and bound radioactivity levels were determined using a gamma counter.

[2] = biological target: T2, PIG-tailed EPO-R immobilized on mAb179 (Homo sapiens, UniProt P19235); experiment: PIG-tailed EPO-R radioligand competition binding assay; conditions: streptavidin 4:1 experiment; free peptide concentrations
T2 construct: comprised the extracellular domain of the EPO-receptor; thrombin cleavage site (internal); made in house
T2 sequence (P19235 25-250 limits assumed): T1 sequence (P19235 25-250 limits assumed)

[3] = biological target: T3, FDCP-1/hEPO-R cells (human EPO-R) (Homo sapiens, UniProt P19235); experiment: cell-based
T3 sequence (P19235 25-508): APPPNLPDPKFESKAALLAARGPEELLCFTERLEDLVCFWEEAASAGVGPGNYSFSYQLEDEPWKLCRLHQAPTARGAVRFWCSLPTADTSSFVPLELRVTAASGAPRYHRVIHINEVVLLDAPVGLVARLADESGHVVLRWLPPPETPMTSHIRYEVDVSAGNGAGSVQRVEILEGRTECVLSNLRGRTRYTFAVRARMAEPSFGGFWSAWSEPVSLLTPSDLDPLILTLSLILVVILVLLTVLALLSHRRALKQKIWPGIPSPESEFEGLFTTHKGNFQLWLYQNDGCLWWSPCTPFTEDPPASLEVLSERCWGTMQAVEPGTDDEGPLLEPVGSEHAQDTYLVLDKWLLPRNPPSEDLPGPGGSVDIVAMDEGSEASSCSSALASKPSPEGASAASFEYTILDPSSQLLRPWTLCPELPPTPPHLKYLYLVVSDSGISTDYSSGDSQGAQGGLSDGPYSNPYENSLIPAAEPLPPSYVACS
Description: One assay utilized FDCP-1, a growth factor depenent murne multi-potential primitive hematopoietic progenitor cell line (see, e.g., Dexter et al. (1980) J. Exp. Med. 152:1036-1047), as the parental cell line. This cell line can proliferate, but not differentiate, when supplemented with WEHI3-conditioned media (a medium that contains IL-3, ATCC number T1B68).
In brief, the cells are grown to half stationary density in the presence of the necessary growth factors. The cells are then washed in PBS and starved for 16-24 hours in whole media without the growth factors. After determining the viability of the cells, stock solutions (in whole media without the growth factors) are made to give about 10^5 cells per 50 microliters. […] Cells (50 microliters) are added to each well and the cells are incubated 24-48 hours, at which point the negative controls should die or be quiescent. Cell proliferation is then measured by techniques known in the art, such as an MTT assay which correlates with ^3 H-thymidine incorporation as an indication of cell proliferation (see, Mosmann (1983) J. Immnunol. Methods 65:55).
In addition, this peptide was preincubated with streptavidin in serum-free HEPES-buffered RPMI at a 4:1 molar ratio, as above. The complex was tested for stimulation of cell proliferation in an FDCP-1/hEPO-R bioassay alongside. free […] […]

[4] = biological target: T4, murine receptor (FDC-P1/ER cells) (Mus musculus, UniProt P14753); experiment: cell-based; conditions: IA = inactive
T4 sequence (P14753 25-507): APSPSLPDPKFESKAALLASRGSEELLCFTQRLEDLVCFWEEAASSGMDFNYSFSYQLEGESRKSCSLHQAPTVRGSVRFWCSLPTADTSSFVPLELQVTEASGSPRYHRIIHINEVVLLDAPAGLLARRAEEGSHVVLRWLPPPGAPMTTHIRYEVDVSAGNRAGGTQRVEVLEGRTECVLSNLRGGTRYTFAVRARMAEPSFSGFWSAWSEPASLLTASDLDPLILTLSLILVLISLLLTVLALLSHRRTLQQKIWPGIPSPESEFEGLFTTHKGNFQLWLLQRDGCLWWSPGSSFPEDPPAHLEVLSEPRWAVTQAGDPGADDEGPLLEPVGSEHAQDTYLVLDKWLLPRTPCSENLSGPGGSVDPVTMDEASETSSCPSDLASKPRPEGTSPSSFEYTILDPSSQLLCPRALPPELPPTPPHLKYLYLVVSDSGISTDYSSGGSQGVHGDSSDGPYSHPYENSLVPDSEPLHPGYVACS
Description: Sample Preparation: Peptides were resuspended in DMSO as a 1×10^-2 M stock solution and serially diluted in 10-fold increments to generate the following 100×solutions:
Two μl of each stock dilution was added to a cell well as described below in a total volume of 200 μl to generate final concentrations as follows:
(§1) Cells are harvested and resuspended in fresh medium without growth factor (erytiropoietin) for 24 hr. Cells are counted and resuspended at a concentration of 800,000 cells/ml. Approximately forty thousand cells (50μ) are added to each well of a 96 well microtiter plate. Peptide is added to each well in triplicate. A standard dose response determination is run with each series of peptides. After a forty-two hr incubation (≈2 doubling), each well is pulsed with 1 μCi/well Thymidine. Cells are incubated an additional six hr at which time cells are harvested and counted to assess thymidine incorporation as an indicator of cell proliferation.

[5] = biological target: T5, truncated human erythropoietin receptor cell line (Homo sapiens, UniProt P19235); experiment: cell-based
T5 sequence (P19235 25-468 limits assumed): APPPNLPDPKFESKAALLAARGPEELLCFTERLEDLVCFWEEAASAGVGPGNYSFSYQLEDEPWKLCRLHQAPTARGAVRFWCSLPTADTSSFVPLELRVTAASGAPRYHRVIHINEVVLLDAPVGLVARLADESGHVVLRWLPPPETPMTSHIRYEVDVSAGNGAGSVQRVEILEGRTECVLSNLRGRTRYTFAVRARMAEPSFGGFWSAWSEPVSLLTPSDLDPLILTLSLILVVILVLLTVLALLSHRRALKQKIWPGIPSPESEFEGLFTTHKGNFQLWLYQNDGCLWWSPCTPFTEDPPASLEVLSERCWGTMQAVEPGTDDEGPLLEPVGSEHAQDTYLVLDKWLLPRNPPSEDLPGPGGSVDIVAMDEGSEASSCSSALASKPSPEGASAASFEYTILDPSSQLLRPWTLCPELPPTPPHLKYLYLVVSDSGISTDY
Description: as §1

[6] = EPO-ED50 (μM)* murine receptor, Tables 20-21

Molecule	Relative Binding [1]	EC50 [5]	EC50 [4, 6]	further results
RWJ 61721 (GGTYSEHFGPLTWVKKPQGG)	> 100			
CC(C)C[C@@H]1NC(=O)[C@@H]2CCCN2C(=O)CNC(=O)[C@H](Cc2ccccc2)NC(=O)[C@H](Cc2c[nH]cn2)NC(=O)[C@@H](NC(=O)[C@H](CO)NC(=O)[C@H](Cc2ccc(O)cc2)NC(=O)[C@@H](NC(=O)CNC(=O)CN)[C@@H](C)O)CSSC[C@@H](C(=O)N[C@@H](CCCCN)C(=O)N2CCC[C@H]2C(=O)N[C@@H](CCC(N)=O)C(=O)NCC(=O)NCC(=O)N[C@@H](CO)C(=O)N[C@@H](CO)C(=O)N[C@@H](CCCCNC(=O)CCCCCNC(=O)CCCC[C@@H]2SC[C@@H]3NC(=O)N[C@@H]32)C(N)=O)NC(=O)[C@H](C(C)C)NC(=O)[C@H](Cc2c[nH]c3ccccc23)NC(=O)[C@H]([C@@H](C)O)NC1=O (HELM PEPTIDE1{G.G.T.Y.S.C.H.F.G.P.L.T.W.V.C.K.P.Q.G.G.S.S.K.[am]}|PEPTIDE2{[O=C1N[C@H]2[C@H](CS[C@H]2CCCCC(=O)[*:2])N1].[O=C(CCCCCN[*:1])[*:2]]}$PEPTIDE1,PEPTIDE2,23:R3-2:R2|PEPTIDE1,PEPTIDE1,6:R3-15:R3$$$V2.0; N-terminus and C-terminus assumed)				IC50 [2]: 0.35 µM
CC(C)C[C@@H]1NC(=O)[C@@H]2CCCN2C(=O)CNC(=O)[C@H](Cc2ccccc2)NC(=O)[C@H](Cc2c[nH]cn2)NC(=O)[C@@H](NC(=O)[C@H](CO)NC(=O)[C@H](Cc2ccc(O)cc2)NC(=O)[C@@H](NC(=O)CNC(=O)CN)[C@@H](C)O)CSSC[C@@H](C(=O)N[C@@H](CCCCN)C(=O)N2CCC[C@H]2C(=O)N[C@@H](CCC(N)=O)C(=O)NCC(=O)NCC(N)=O)NC(=O)[C@H](C(C)C)NC(=O)[C@H](Cc2c[nH]c3ccccc23)NC(=O)[C@H]([C@@H](C)O)NC1=O [RWJ 61233] (HELM PEPTIDE1{G.G.T.Y.S.C.H.F.G.P.L.T.W.V.C.K.P.Q.G.G.[am]}$PEPTIDE1,PEPTIDE1,6:R3-15:R3$$$V2.0)		0.1 µM		EC50 [3]: 0.4 µM; EC50 ([3]; EPO-ED50, FIG. 10): ~1 µM; EC50 ([4]; EPO-ED50 (μM), Tables 17-19, amount for half maximal level of EPO dependent proliferation): 0.1 µM
CC(C)C[C@@H]1NC(=O)[C@@H]2CCCN2C(=O)CNC(=O)[C@H](Cc2ccccc2)NC(=O)[C@H](Cc2c[nH]cn2)NC(=O)[C@@H](NC(=O)[C@H](CO)NC(=O)[C@H](Cc2ccc(F)cc2)NC(=O)[C@@H](NC(=O)CNC(=O)CN)[C@@H](C)O)CSSC[C@@H](C(=O)N[C@@H](CCCCN)C(=O)N2CCC[C@H]2C(=O)N[C@@H](CCC(N)=O)C(=O)NCC(=O)NCC(N)=O)NC(=O)[C@H](C(C)C)NC(=O)[C@H](Cc2c[nH]c3ccccc23)NC(=O)[C@H]([C@@H](C)O)NC1=O [RWJ 62020, GGTXSCHFGPLTWVCKPQGG] (HELM PEPTIDE1{G.G.T.[O=C([C@H](Cc1ccc(F)cc1)N[*:1])[*:2]].S.C.H.F.G.P.L.T.W.V.C.K.P.Q.G.G.[am]}$PEPTIDE1,PEPTIDE1,6:R3-15:R3$$$V2.0)		0.1 µM	1 µM	
CC(=O)NCC(=O)NCC(=O)N[C@H](C(=O)N[C@@H](Cc1ccc(O)cc1)C(=O)N[C@@H](CO)C(=O)N[C@H]1CSSC[C@@H](C(=O)N[C@@H](CCCCN)C(=O)N2CCC[C@H]2C(=O)N[C@@H](CCC(N)=O)C(=O)NCC(=O)NCC(N)=O)NC(=O)[C@H](C(C)C)NC(=O)[C@H](Cc2c[nH]c3ccccc23)NC(=O)[C@H]([C@@H](C)O)NC(=O)[C@H](CC(C)C)NC(=O)[C@@H]2CCCN2C(=O)CNC(=O)[C@H](Cc2ccccc2)NC(=O)[C@H](Cc2c[nH]cn2)NC1=O)[C@@H](C)O [RWJ 62146] (HELM PEPTIDE1{[ac].G.G.T.Y.S.C.H.F.G.P.L.T.W.V.C.K.P.Q.G.G.[am]}$PEPTIDE1,PEPTIDE1,7:R3-16:R3$$$V2.0)	4	0.06 µM	0.03 µM	
